ChEMBL document CHEMBL1201862, “PubChem BioAssay data set” (2004)
Calls of active or inactive are those of the source.

What was measured:
Major prion protein = Major prion protein (Homo sapiens, UniProt P04156); format: functional, cell-based
cells [1] = assay: cells
Caspase-6 = Caspase-6 (Homo sapiens, UniProt P55212); assay: human caspase-6 inhibitors, dose response, biochemical, VEID-R110 fluorescence, cherry-pick (AID 720632)
[2] = target: Voltage-gated inwardly rectifying potassium channel KCNH2 (Homo sapiens, UniProt Q12809); assay: hERG protection from proarrhythmic block, potency, dose response, cell-based, thallium flux (AID 2121); format: ADME
[3] = Luminescence Cell-Based Dose Response to Identify Activators of 5'UTR Stem-Loop Driven Prion Protein mRNA Translation in H4-C Neuroglioblastoma Cells. [Related pubchem assays: 1829 (Project Summary), 1814 (Primary HTS)]; format: functional
[4] = Luminescence Cell-Based Dose Response HTS to Identify Activators of Luciferase Translation or Activity in H4 […] Cells. [Related pubchem assays: 1829 (Project Summary), 1814 (Primary HTS)]; format: functional
H4 = assay: Luminescence Cell-Based Dose Response HTS to Identify Activators of 5'UTR Stem-Loop Driven Prion Protein mRNA Translation in H4 Neuroglioblastoma Cells. [Related pubchem assays: 1829 (Project Summary), 1814 (Primary HTS)]; format: functional; conditions: Homo sapiens
[5] = Luminescence Cell-Based Dose Response to Identify Activators of Luciferase Translation or Activity in H4-C Neuroglioblastoma Cells. [Related pubchem assays: 1829 (Project Summary), 1814 (Primary HTS)]; format: functional
[6] = Luminescence Cell-Based Dose Confirmation to Identify Activators of 5'UTR Stem-Loop Driven Alpha-Synuclein mRNA Translation in H4 Neuroglioblastoma Cells. [Related pubchem assays: 1829 (Project Summary), 1814 (Primary HTS)]; format: functional
[7] = target: Epstein-Barr nuclear antigen 1 (Epstein-Barr virus (strain B95-8) (HHV-4) (Human herpesvirus 4), UniProt P03211); assay: EBNA-1 inhibitors, dose response, biochemical, fluorescence polarization, 1536-well (AID 2381); design: species or system human gammaherpesvirus 4;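 further: fluorescence polarization of a Cy5 DNA probe bound by EBNA-1 protein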
Sequence of Epstein-Barr nuclear antigen 1 (P03211 whole entry): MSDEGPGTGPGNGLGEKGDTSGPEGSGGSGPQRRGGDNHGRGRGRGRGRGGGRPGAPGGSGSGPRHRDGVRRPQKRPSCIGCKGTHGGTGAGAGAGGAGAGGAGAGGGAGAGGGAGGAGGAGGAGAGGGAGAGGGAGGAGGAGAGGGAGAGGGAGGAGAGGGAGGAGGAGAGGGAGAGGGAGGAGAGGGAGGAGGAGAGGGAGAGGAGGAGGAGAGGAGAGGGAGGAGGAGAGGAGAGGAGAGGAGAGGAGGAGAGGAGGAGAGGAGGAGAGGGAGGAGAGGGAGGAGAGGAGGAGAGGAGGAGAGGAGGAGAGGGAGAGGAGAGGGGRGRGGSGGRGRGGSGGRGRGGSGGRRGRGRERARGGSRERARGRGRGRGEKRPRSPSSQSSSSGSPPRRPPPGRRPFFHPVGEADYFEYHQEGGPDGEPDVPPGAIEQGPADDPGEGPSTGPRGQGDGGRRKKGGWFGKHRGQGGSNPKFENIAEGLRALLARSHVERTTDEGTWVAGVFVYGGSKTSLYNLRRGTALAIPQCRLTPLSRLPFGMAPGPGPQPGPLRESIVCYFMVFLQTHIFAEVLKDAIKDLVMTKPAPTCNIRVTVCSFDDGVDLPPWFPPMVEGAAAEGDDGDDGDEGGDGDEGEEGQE

[8] = target: Lytic switch protein BZLF1 (Epstein-Barr virus (strain B95-8) (HHV-4) (Human herpesvirus 4), UniProt P03206); assay: EBV ZTA inhibitors, dose response, counter-screen for EBNA-1 inhibitor project, biochemical, fluorescence polarization, Epstein-Barr virus, 1536-well (AID 2377); design: species or system human gammaherpesvirus 4;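 further: fluorescence polarization of Cy5-labelled ZRE DNA probe bound by purified Zta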
Sequence of Lytic switch protein BZLF1 (P03206 whole entry): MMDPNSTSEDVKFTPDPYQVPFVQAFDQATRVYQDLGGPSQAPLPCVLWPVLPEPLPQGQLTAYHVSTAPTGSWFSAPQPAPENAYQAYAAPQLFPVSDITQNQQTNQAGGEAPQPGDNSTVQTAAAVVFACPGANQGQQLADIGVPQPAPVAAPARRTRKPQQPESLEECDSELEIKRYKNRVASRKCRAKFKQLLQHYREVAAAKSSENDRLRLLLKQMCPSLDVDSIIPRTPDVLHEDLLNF

[9] = Shn3 3'UTR reporter inhibitors, dose response, cell-based, Clone20 osteoblasts, firefly luciferase, cherry-picked (AID 624132); format: functional;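 further: firefly luciferase luminescence from reporter carrying the Shn3 3'UTR in osteoblasts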
[10] = HepG2 cell cytotoxicity, dose response, cytotoxicity control for Shn3 inhibitor project, CellTiter-Glo, cherry-picked (AID 624134); format: functional, cell-based
[11] = control 3'UTR Renilla luciferase suppression, dose response, counter-screen for Shn3 inhibitor project, cell-based, Clone20-Shn3RL, cherry-picked (AID 624133); format: functional
[12] = reduction of Shn3 3'UTR firefly luciferase signal, dose response, Schnurri-3 inhibitor project, cell-based, Clone20 osteoblasts, cherry-pick, set 2 (AID 720490); format: functional;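 further: actives lower the luminescence signal as inhibitors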
Cytochrome P450 2C9 = Cytochrome P450 2C9 (Homo sapiens, UniProt P11712)
[13] = NIH-3T3 fibroblast cytotoxicity, dose response, cytotoxicity control, cell-based, fluorescence, Alamar Blue, secondary assay (AID 2327); format: functional;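 further: NIH-3T3 mouse fibroblasts cultured with fluconazole at 8 µg/mL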
[14] = C. albicans growth with fluconazole, confirmation, fluorescence, retest (AID 2467); format: functional, cell-based
Ephrin type-A receptor 4 = Ephrin type-A receptor 4 (Mus musculus, UniProt Q03137); assay: inhibitors of EphA4 binding to KYL peptide, primary screen, biochemical, colorimetric, mouse EphA4 (AID 689); format: functional
Prothrombin = Prothrombin (Homo sapiens, UniProt P00734); assay: Thrombin 1536 HTS Dose Response Confirmation. [Related pubchem assays: 1046 (Thrombin 1536 HTS; hits were confirmed in this assay)]; format: functional
[15] = MITF Orthogonal Assay: SK-MEL-5 CTG Assay Measured in Cell-Based System Using Plate Reader - 2084-02_Inhibitor_Dose_DryPowder_Activity_Set7.; format: functional
[16] = MITF: Counter assay: A375 proliferation Measured in Cell-Based System Using Plate Reader - 2084-03_Inhibitor_Dose_DryPowder_Activity_Set8.; format: functional; conditions: A-375
[17] = TRPM1 promoter luciferase reporter signal decrease, dose response, MITF inhibitor project, cell-based, SK-MEL-5, dry powder, set 8 (AID 624430); format: functional
Estrogen receptor beta = Estrogen receptor beta (Homo sapiens, UniProt Q92731);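 further: recombinant ER-beta bound to coactivator SRC1 peptide in presence of estradiol agonist; inhibitors block coactivator peptide binding and lower the FRET signal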
Sequence of Estrogen receptor beta (Q92731 whole entry): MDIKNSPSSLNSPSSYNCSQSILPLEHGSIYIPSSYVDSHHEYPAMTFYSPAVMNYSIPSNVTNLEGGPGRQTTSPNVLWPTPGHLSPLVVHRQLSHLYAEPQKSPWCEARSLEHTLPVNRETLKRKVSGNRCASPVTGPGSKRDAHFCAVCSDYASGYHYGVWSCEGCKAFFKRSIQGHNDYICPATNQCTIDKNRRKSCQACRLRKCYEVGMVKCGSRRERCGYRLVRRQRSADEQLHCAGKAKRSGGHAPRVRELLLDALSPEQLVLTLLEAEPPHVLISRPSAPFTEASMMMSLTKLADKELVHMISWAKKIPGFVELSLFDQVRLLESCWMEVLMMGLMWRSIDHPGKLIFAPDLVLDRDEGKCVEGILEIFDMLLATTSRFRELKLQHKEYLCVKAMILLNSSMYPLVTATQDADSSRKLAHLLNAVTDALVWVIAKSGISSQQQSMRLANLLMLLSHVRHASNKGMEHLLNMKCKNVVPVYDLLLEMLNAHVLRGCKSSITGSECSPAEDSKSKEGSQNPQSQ

[18] = Luminescence-based dose response cell-based high throughput screening assay for cytotoxic compounds using the IEC-6 intestinal epithelial cell line. [Related pubchem assays: 1858 (Summary AID.), 1825 (Counterscreen.), 1907 (Confirmation screen.)]; format: functional
[19] = cytotoxicity in HEK-293T cells, dose response, cytotoxicity control for TCR NF-kB inhibitor project, luminescence, T-cell screen hits (AID 489026); format: functional, cell-based;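 further: cells exposed to compound about 14 hours before the viability readout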
[20] = target: Sphingosine 1-phosphate receptor 2 (Homo sapiens, UniProt O95136); assay: Dose Response Cell Based Assay for Agonists of the S1P2 Receptor of Purchased Analogues. [Related pubchem assays: 729, 843, 854, 736 ]; format: functional
cells [21] = format: functional, cell-based
[22] = inhibitors of intracellular T. cruzi replication, confirmation, NIH3T3 host cells, beta-gal luminescence (AID 2044); format: functional, cell-based;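 further: intracellular parasites grown in NIH/3T3 mouse fibroblasts as host cells; luminescent beta-galactosidase reporter signal from transgenic T. cruzi replicating inside host cells; inhibitors lower the luminescence signal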
cells [23] = format: functional, cell-based; remark: listed apart in the source
[24] = cytotoxicity toward NIH3T3 fibroblasts, dose response, counter-screen, cell-based, ATP luminescence, mouse fibroblasts (AID 2010); format: functional;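 further: cells exposed to compound for about 90 hours before reading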
Nonstructural protein 1 = Nonstructural protein 1 (Influenza A virus, UniProt Q194T2); format: functional, Influenza A virus (A/California/07/2009(H1N1))
INS1 = assay: beta cell apoptosis inhibitors, cytokine rescue, dose response, luminescence, retest (AID 449756); format: functional, cell-based; conditions: Rattus norvegicus;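 further: cell death triggered by IL-1 beta plus TNF-alpha plus IFN-gamma mixture; protective hits raise ATP signal compared with cytokine alone wells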
Cytochrome P450 2C19 = Cytochrome P450 2C19 (Homo sapiens, UniProt P33261); assay: Cytochrome panel assay with activity outcomes. Panel member name: p450-cyp2c19 Compounds with AC50 equal or less than 10 uM are considered active; format: functional; conditions: read-out: AC50
fMet-Leu-Phe receptor = fMet-Leu-Phe receptor (Homo sapiens, UniProt P21462); assay: FPR ligands, dose response (AID 519); format: functional
[25] = target: T1, Voltage-gated N-type calcium channel alpha-1B subunit/Amyloid beta A4 precursor protein-binding family A member 1 (Homo sapiens, UniProt Q00975+Q02410); format: protein assay
T1 sequence (Q00975 whole entry): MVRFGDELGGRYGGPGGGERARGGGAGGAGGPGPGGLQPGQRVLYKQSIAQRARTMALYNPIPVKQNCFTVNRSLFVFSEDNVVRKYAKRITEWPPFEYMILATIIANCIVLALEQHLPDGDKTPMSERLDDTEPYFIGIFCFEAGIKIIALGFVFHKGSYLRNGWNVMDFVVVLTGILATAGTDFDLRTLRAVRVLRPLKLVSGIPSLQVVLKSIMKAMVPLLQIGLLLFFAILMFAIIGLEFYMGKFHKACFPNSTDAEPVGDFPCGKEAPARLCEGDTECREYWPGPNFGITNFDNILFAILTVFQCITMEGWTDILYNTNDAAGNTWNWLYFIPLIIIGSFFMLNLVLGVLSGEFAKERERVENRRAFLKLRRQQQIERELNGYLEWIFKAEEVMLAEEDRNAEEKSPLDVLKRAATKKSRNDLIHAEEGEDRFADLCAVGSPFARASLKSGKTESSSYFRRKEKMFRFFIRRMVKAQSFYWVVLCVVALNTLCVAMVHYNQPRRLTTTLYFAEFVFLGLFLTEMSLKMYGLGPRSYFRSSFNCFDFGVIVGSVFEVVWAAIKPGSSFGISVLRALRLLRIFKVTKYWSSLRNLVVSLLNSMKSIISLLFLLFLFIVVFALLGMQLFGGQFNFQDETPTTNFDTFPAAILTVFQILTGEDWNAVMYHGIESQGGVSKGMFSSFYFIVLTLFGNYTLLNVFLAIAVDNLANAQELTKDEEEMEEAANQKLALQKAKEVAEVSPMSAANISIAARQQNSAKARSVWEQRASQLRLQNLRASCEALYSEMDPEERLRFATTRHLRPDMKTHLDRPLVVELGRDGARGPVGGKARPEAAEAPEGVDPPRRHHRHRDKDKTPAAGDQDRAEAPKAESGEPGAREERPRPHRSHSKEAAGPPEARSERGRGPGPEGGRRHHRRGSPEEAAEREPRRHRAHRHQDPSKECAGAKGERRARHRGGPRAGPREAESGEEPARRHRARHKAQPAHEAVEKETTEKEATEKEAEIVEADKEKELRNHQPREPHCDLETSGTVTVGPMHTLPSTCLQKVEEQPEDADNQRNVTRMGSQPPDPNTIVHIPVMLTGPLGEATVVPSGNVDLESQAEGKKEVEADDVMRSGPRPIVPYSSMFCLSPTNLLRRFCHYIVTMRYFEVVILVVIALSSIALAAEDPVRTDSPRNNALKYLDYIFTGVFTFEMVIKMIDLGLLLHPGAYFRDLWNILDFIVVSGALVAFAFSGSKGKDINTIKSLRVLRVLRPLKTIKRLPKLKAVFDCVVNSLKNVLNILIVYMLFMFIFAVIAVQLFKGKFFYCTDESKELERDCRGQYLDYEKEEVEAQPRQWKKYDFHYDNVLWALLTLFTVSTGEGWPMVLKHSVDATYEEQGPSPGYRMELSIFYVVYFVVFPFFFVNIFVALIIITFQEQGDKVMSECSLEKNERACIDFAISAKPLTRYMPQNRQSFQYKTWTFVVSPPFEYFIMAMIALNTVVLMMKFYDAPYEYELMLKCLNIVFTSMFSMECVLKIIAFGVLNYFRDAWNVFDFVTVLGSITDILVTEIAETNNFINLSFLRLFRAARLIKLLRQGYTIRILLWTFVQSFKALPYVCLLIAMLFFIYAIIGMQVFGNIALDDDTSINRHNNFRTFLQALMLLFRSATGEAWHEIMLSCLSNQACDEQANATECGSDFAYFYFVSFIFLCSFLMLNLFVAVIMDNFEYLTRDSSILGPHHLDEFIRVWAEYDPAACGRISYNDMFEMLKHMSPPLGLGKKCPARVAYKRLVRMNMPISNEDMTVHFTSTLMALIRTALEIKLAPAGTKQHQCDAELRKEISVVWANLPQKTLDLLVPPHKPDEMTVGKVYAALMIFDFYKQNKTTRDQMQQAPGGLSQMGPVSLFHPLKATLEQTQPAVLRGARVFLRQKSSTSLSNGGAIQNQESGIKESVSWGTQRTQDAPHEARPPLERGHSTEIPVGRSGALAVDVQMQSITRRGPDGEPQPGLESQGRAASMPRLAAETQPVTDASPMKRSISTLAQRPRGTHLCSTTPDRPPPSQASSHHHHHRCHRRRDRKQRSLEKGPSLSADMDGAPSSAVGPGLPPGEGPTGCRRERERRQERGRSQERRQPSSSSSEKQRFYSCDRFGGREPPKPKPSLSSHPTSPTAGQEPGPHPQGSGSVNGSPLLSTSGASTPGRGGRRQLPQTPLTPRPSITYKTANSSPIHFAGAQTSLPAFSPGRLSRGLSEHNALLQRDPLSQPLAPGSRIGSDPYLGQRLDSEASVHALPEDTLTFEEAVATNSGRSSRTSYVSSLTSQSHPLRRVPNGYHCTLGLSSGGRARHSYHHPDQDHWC
T1 sequence (Q02410 whole entry): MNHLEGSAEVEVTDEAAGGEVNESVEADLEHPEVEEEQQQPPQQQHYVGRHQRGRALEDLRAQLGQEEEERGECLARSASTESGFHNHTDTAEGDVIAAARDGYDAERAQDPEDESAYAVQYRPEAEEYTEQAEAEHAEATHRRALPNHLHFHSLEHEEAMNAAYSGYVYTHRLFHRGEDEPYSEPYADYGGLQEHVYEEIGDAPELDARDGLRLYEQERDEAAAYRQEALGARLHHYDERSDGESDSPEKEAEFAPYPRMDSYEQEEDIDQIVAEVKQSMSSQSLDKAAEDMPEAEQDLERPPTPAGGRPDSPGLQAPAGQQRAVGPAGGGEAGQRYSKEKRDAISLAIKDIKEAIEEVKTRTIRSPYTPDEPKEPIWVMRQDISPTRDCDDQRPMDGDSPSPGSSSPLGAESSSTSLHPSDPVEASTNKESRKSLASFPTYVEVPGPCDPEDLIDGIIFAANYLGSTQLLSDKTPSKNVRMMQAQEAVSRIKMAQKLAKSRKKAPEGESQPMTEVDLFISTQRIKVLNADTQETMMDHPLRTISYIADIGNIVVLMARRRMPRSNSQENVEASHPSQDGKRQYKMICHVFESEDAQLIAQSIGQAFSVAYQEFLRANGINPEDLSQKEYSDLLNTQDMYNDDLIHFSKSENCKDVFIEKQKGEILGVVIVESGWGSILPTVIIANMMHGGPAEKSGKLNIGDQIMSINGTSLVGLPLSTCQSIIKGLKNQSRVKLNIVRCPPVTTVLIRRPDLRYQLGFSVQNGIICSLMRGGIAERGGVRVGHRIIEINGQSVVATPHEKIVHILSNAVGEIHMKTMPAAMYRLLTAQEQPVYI

[26] = target: T1, Voltage-gated N-type calcium channel alpha-1B subunit/Amyloid beta A4 precursor protein-binding family A member 1; format: protein assay; remark: listed apart in the source
[27] = system: Streptococcus sp. 'group A'; assay: growth inhibition of control SK(-) GAS strain, dose response, counter-screen for streptokinase expression inhibitor project, luminescence, kanamycin, BacTiterGlo, confirmation (AID 1900); format: functional, organism-based
Streptokinase A = target: T2, Streptokinase A (Streptococcus pyogenes serotype M1, UniProt P10520); assay: S. pyogenes streptokinase expression inhibitors, potency, dose response, plasminogen activation absorbance, OD405 (AID 1914); format: functional, Streptococcus pyogenes M1 GAS;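 further: secreted streptokinase activity via plasminogen activation per viability signal from cell pellet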
T2 sequence (P10520 whole entry): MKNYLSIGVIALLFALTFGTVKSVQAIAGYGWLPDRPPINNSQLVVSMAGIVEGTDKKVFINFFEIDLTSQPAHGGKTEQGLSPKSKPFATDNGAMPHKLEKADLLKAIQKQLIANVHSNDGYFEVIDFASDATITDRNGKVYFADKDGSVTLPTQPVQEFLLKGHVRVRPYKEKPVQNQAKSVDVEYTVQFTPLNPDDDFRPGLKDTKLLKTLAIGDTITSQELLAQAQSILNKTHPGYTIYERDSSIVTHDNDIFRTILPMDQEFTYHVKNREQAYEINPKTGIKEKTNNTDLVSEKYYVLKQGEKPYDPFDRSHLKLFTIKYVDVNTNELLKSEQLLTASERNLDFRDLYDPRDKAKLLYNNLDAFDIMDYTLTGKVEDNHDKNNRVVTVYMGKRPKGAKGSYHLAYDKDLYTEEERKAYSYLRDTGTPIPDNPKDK

Streptococcus = assay: Group A Streptococcus viability loss, dose response, counter-screen for streptokinase expression inhibitor project, luminescence, BacTiterGlo (AID 1915); format: functional, organism-based;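 further: potency for reduction of bacterial viability or growth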
[28] = Artemis endonuclease inhibitor potency, dose response, biochemical, fluorescence intensity (AID 720701); format: functional;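 further: Artemis endonuclease enzyme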

Sequence of Caspase-6 (P55212 24-179 limits assumed): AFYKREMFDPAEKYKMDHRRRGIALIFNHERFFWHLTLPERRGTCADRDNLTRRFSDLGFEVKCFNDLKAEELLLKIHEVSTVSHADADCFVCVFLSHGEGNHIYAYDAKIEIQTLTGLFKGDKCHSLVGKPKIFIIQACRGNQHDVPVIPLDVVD
Sequence of Caspase-6 (P55212 194-293 limits assumed): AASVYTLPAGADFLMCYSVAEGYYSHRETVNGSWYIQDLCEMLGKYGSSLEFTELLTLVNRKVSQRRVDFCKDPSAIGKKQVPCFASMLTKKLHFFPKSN

Structure (SMILES): COc1cccc(N2CC(=O)C(c3nc4ccccc4s3)=C2N)c1
- IC50 (Major prion protein): 5.11 µM (active)
- IC50 (cells [1]): > 138 µM (inactive)

Structure (SMILES): CN1C(=O)c2cc(NC(=O)C3CC3)ccc2OC[C@H]2O[C@@H](CC(=O)O)CC[C@@H]21
- AC50 (Caspase-6): 23.1 µM (active)

Structure (SMILES): C=CCn1c(=S)[nH]c2cc(-c3ccccc3)sc2c1=O
- EC50 [2]: 1.11 µM (active)

Structure (SMILES): COCc1nc2oc3ccc(C)cc3c(=O)c2cc1C(=O)OC
- EC50 [3]: 0.433 µM (active)
- EC50 [4]: < 0.1 µM (inconclusive)
- EC50 (H4): > 120 µM (not active)
- EC50 [5]: 0.402 µM (active)
- EC50 [6]: 0.282 µM (active)

Structure (SMILES): CNS(=O)(=O)c1cccc(C(=O)OCC(=O)Nc2ccc(-c3nc4ccc(C)cc4s3)cc2)c1
- IC50 [7]: 5.63 µM (active)
- IC50 [8]: > 111 µM (not active)

Structure (SMILES): COCOCCn1cc(CN2CCS(=O)(=O)N(Cc3ccc(-c4ccc(Cl)c(Cl)c4)cc3)C(C(C)C)C2=O)nn1 (configuration not stated)
- AC50 [9]: 1.35 µM (active)
- AC50 [10]: > 70 µM (inactive)
- AC50 [11]: 7.09 µM (active)
- AC50 [12]: 1.86 µM (active)

Structure (SMILES): COc1ccccc1NC(=S)NC(=O)c1ccc(-c2ccc(Cl)cc2)o1
- EC50 [2]: 0.1 µM (active)
- AC50 (Cytochrome P450 2C9): inconclusive

Structure (SMILES): Cc1ccc2cc(C=C(C#N)C#N)c(N3CCCCC3)nc2c1
- EC50 [13]: 46.4 µM (active)
- EC50 [14]: > 38 µM (not active)
- IC50 (Ephrin type-A receptor 4): 24.4 µM (active)

Structure (SMILES): Cc1c(Cl)cccc1NC(=O)Cc1ccc([N+](=O)[O-])cc1
- IC50 (Prothrombin): > 50 µM (not active)

Structure (SMILES): O=C1C(Nc2ccc(F)cc2F)=C(N2CCCCC2)C(=O)c2ccccc21
- AC50 [15]: 3.64 µM (active)
- AC50 [16]: 21.8 µM (active)
- AC50 [17]: 0.931 µM (active)

Structure (SMILES): COc1ccc(CCNC(=O)COC(=O)c2ccc([N+](=O)[O-])o2)cc1
- AC50 (Caspase-6): 24.1 µM (active)

Structure (SMILES): O=S(=O)(c1cccc(-c2nc3ccccc3s2)c1)N1CCOCC1
- IC50 (Estrogen receptor beta): > 50 µM (not active)

Structure (SMILES): CC(=O)O[C@H]1C(=O)[C@@]2(C)C([C@H](OC(=O)c3ccccc3)[C@]3(O)C[C@H](OC(=O)[C@H](O)[C@@H](NC(=O)Cc4ccccc4)c4ccccc4)C(C)=C1C3(C)C)[C@]1(OC(C)=O)CO[C@@H]1C[C@@H]2O (some centres not stated)
- IC50 [18]: 0.396 µM (active)
- IC50 [19]: > 80 µM (inactive)

Structure (SMILES): CC(C)CN(CCC(=O)O)CC(C)C
- IC50 (Estrogen receptor beta): > 50 µM (not active)

Structure (SMILES): CCN1CCN(C2=C(Nc3ccc(OC)cc3)C(=O)c3ccccc3C2=O)CC1
- AC50 [15]: 12.2 µM (active)
- AC50 [16]: > 70 µM (inactive)
- AC50 [17]: 6.87 µM (active)

Structure (SMILES): CSc1nc(-c2ccco2)nn1C(=O)c1ccco1
- IC50 (Prothrombin): 0.22 µM (active)

Structure (SMILES): Cc1cc(C(=O)CN2C(=O)C(=O)N(Cc3ccco3)C2=O)c(C)n1Cc1ccccc1
- EC50 [20]: > 30 µM (not active)

Structure (SMILES): COc1cccc(C(NC(C)=O)c2ccc3cccnc3c2O)c1 (configuration not stated)
- EC50 [13]: 3.88 µM (inconclusive)
- EC50 (cells [21]): 7.47 µM (active)
- EC50 [14]: 1.38 µM (active)
- EC50 [22]: 1.07 µM (active)
- IC50 [18]: 1.48 µM (active)
- EC50 (cells [23]): > 350 µM (not active)
- EC50 [24]: 1.07 µM (active)
- IC50 (Nonstructural protein 1): 14.3 µM (active)
- AC50 (INS1): 0.886 µM (active)
- AC50 [9]: 1.39 µM (active)
- AC50 [10]: 2.61 µM (active)
- AC50 [11]: 1.04 µM (active)

Structure (SMILES): COc1cc(C2C(C(=O)c3ccc(C)o3)=C(O)C(=O)N2CCc2ccccc2)ccc1O (configuration not stated)
- AC50 (Cytochrome P450 2C19): 11.2 µM (inconclusive)
- Ki (fMet-Leu-Phe receptor): 19.7 µM (inactive)

Structure (SMILES): O=C(Nc1nc2cc3c(cc2s1)OCCO3)c1ccc(N2C(=O)CCC2=O)cc1
- IC50 [25]: 23 µM (active)
- IC50 [7]: 15.6 µM (not active)
- IC50 [26]: > 50 µM (inactive)
- IC50 [8]: 15.1 µM (not active)

Structure (SMILES): Cc1cc(C(=O)CN2C(=O)C(=O)N(Cc3ccccc3)C2=O)c(C)n1Cc1ccco1
- EC50 [20]: > 30 µM (not active)

Structure (SMILES): COc1cc2c(C#N)c(N3CCN(c4ccccc4OC)CC3)nc(N)c2c(N)n1
- EC50 [27]: 4.63 µM (active)
- EC50 (Streptokinase A): 22.6 µM (active)
- EC50 (Streptococcus): > 150 µM (not active)
- IC50 [28]: > 20 µM (inactive)

Structure (SMILES): Cc1ccccc1OCCOC(=O)c1cc(S(=O)(=O)N2CCCCC2)ccc1N1CCOCC1
- AC50 [9]: 3.79 µM (active)
- AC50 [10]: > 70 µM (inactive)
- AC50 [11]: > 70 µM (inactive)
- AC50 [12]: 4.28 µM (active)

Structure (SMILES): COc1ccc(NC(=O)C2C(=O)NC3(C)CC2c2ccccc2O3)cc1 (configuration not stated)
- Ki (fMet-Leu-Phe receptor): > 66.7 µM (inactive)
